Values quoted from earlier work in patent US20070243268A1, “Compositions for regulating intestinal disorders and methods of use thereof” (priority 2005, published 2007).

Tested on: prostate cancer
Settings: 970 men, 200 mcg selenium daily (as selenium-enriched yeast) for 4.5 years

## [Se] [selenium]
  reduction in the incidence of prostate cancer: 63%
